Measured values published in patent US9387221B2, “SDF-1 binding nucleic acids and the use thereof in cancer treatment” (NOXXON Pharma AG, priority 2010, dated 2016).
Entries after “also recorded” stand apart in the source; their conditions may differ. {PEG40k} = 40 kDa polyethylene glycol

Tests used:
Jurkat cells = assay: Proliferation of Jurkat cells in coculture with stromal MS-5 cells; type: cell-based, human; conditions: 40 hours
Description: Aim of the experiment was to show whether SDF-1 binding Spiegelmer NOX-A12 has an impact on proliferation of leukemia cells in coculture with bone marrow (abbr. BM) stromal cells. Murine stromal MS-5 cells secreting SDF-1 were incubated with SDF-1 binding Spiegelmer NOX-A12 or the non-functional Spiegelmer revNOX-A12. The leukemic T-cell line Jurkat was added to the confluent stromal cell layer and incubated for 40 hours at 37° C. and 5% CO2. Cell numbers were quantified by Flow Cytometry using the Guava EasyCyte and ViaCount Reagent.
The murine stromal cell line MS-5 (ACC 441) were purchased from the DSMZ and were cultured in MEM alpha GlutaMAX (Invitrogen) with 10% FBS and penicillin-streptomycin. For proliferation coculture experiments stromal MS-5 cells were seeded the day before onto 24-well plates (the inner eight wells) at a concentration of 8×10^4/mL/well in MEM alpha GlutaMAX medium (+10% FBS) and incubated at 37° C. in 5% CO2. The confluent stromal cell layer was washed and 0.5 mL RPMI medium 1640 (+1% FBS) was added to the wells. […] 2×10^5 Jurkat cells (logarithmic growth phase; washed once) in RPMI medium 1640 (+1% FBS) were added to the confluent stromal cell layer and incubated for […] at 37° C. with 5% CO2. […] Cell viability and cell number were determined by Flow Cytometry using the Guava EasyCyte 6HT/2L.

stromal MS-5 cells = assay: Viability of stromal MS-5 cells in the coculture; type: cell-based, murine
Description: The murine stromal cell line MS-5 (ACC 441) was purchased from the DSMZ, the Multiple Myeloma cell line RPMI8226 (CCL-155) was purchased from the ATCC. The Multiple Myeloma cell line RPMI8226 was maintained in RPMI medium 1640 GlutaMAX (Invitrogen) supplemented with 10% FBS (Biochrom) and penicillin-streptomycin, the MS-5 cells were cultured in MEM alpha GlutaMAX (Invitrogen) with 10% FBS and penicillin-streptomycin. For chemosensitization coculture experiments stromal MS-5 cells were seeded the day before onto 24-well plates (the inner eight wells) at a concentration of 8×10^4/mL/well in MEM alpha GlutaMAX medium (+10% FBS) and incubated at 37° C. in 5% CO2. The confluent stromal cell layer was washed and 0.5 mL RPMI medium 1640 (+1% FBS) was added to the wells. SDF-1 binding […] NOX-A12 or revNOX-A12 was subsequently added to the wells to a final concentration of 100 nM and incubated for four hours. 3.5×10^5 RPMI8226 cells in RPMI medium 1640 (+1% FBS) were added to the stromal cell layer. Four hours later, 1 μ[…] (Sigma Aldrich) was added to the cells when indicated. After 40 hours of incubation the cells were collected in 15 mL tubes, first the supernatant was harvested and then the attached cells were trypsinized including MS-5 cells. […] Cell viability and cell number were determined by Flow Cytometry using the Guava EasyCyte 6HT/2L (Millipore).

[1] = tested on: SDF-1 induced sprouting, rings from rat aorta; assay: Aortic ring sprouting assay; type: cell-based; conditions: 10 nM SDF-1 + 1 μM Spiegelmer, 6 days; listed as 193-G2-012-5′-PEG
Description: After 6 to 7 days, sprouting (i.e. outgrowth of endothelial cells) was analysed by taking pictures and determining a sprouting index.
Aortae from male rats were obtained from Bagheri Life sciences (Berlin, Germany). The aortae were prepared freshly and transported on ice in MCDB 131-Medium (Invitrogen, Karlsruhe, Germany) containing 50 units/ml penicillin, 50 μg/ml streptomycin (both Invitrogen, Karlsruhe, Germany) and 2.5 μg/ml fungizone (Cambrex, USA).
For an experiment a single aorta was transferred to a cell culture dish together with the medium and residual connective tissue was removed. Then the aorta was cut with a scalpel into rings of about 1 to 2 mm length. The rings were washed intensively (at least five times) in Medium199 (Invitrogen, Karlsruhe, Germany) and then placed in wells of a 24 well plate, containing 450 μl of collagen solution per well. […]
Sprouting was documented by taking pictures with a digital camera. […] Pictures were analysed with the Scion Image image processing software. […] A plot histogram along this line was generated by the software, histograms were printed and peaks (representing sprouts crossing the line) were counted. […] 4 to 5 rings per condition were evaluated. […]

Substance: 5′-40 kDa-PEG-GCGUGGUGUGAUCUAGAUGUAUUGGCUGAUCCUAGUCAGGUACGC (5' {PEG40k}, sugars by position and backbone not given here) [NOX-A12]
- effect on Jurkat cell number (Jurkat cells; 1 nM): no effect
- reduction of Jurkat cell number (Jurkat cells; 10 or 100 nM): up to 20%
- viability of stromal MS-5 cells (stromal MS-5 cells): neither affected
- blockage of SDF-1 induced sprouting (sprouting index) [1]: significantly different from that for SDF-1; also recorded: could be blocked
